In patent publication US5776929A, “Benzodiazepine derivative” (Shionogi & Co., Ltd., priority 1993, dated 1998):

Columns and labels:
CCK-A receptor = target: T1, CCK-A receptor (Mus musculus, UniProt O08786); assay: CCK-A receptor antagonism, displacement of [3H]CCK-8, pancreas crude membrane; type: binding, mouse (male ddY); conditions: mouse pancreas membrane, [3H]CCK-8 1 nM, 90 min, 25 °C; read-out: Receptor CCK-A (IC50)
T1 construct: crude membrane specimen from mouse pancreas; from tissue; host or cells: pancreas of male ddY mice, crude membranes
T1 sequence (O08786 1-436): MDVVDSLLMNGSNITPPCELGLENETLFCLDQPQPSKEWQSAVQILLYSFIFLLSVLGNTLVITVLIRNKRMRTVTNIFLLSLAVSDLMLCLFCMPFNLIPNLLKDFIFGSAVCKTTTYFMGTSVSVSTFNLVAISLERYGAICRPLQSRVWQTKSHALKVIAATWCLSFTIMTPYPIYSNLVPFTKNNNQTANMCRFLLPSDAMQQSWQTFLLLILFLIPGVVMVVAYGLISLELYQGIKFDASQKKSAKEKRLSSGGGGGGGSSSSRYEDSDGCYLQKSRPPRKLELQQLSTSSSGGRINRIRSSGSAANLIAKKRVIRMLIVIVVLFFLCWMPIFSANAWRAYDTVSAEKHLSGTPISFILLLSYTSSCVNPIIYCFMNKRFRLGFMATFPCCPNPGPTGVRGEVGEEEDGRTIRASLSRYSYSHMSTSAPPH
Method: (§1) Male Hartley guinea pig (450-600 g) or male ddY mouse (24-30 g) were used.
(§2) (2) CCK-A Receptor Antagonism and CCK-B Receptor Antagonism
(§3) Preparation of CCK receptor preparations
(§4) Male ddY mice (24 to 30 g) were killed by decapitation and cerebral cortex (CCK-B) and pancreas (CCK-A) were extracted immediately. Each of cerebral cortex and pancreas was mixed with 50 mM Tris-HCl buffer (pH 7.4) and homogenized with a teflon-glass homogenizer and polytron homogenizer to obtain crude membrane specimens.
(§5) Preparation of test compounds and procedures of displacing assay A 1M solution of a compound to be tested in DMSO is prepared and diluted with 50% DMSO to obtain a ten-fold dilution series.
(§6) The reaction is initiated by the addition of crude membrane specimen to solutions of different concentration each containing [^3 H]CCk-8 (final concentration, 1 nM). The mixture is incubated for 90 min at 25° C., filtered through glass filter with aspiration and washed with a cooled 50 mM Tris buffer. After the addition of Aquazol-2 cocktail the radioactivity is counted. The same procedure was repeated using 50% DMSO solution or Ceruletide (final concentration, 1 μM) instead of a solution of test compound so as to obtain the control value regarding total binding or the value regarding non-specific binding, respectively. […]
(§7) specific binding of control=total binding (cpm)-non-specific binding (cpm); and specific binding of test compound=[…]-non-specific binding (cpm).

gastrin receptor = target: T2, gastrin receptor (Cavia porcellus, UniProt H0VZC5); assay: Gastrin receptor antagonism, displacement of 125I-labeled gastrin, gastric (fundic) gland cells; type: binding, guinea pig (male Hartley); conditions: guinea pig gastric glands, 125I-gastrin 0.2 nM, 30 min, 25 °C; read-out: Receptor Gastrin (IC50)
T2 construct: stomach was extracted from each animal immediately, from which gastric glands were prepared; from tissue; host or cells: gastric (fundic) glands of male Hartley guinea pigs
T2 sequence (H0VZC5 1-426): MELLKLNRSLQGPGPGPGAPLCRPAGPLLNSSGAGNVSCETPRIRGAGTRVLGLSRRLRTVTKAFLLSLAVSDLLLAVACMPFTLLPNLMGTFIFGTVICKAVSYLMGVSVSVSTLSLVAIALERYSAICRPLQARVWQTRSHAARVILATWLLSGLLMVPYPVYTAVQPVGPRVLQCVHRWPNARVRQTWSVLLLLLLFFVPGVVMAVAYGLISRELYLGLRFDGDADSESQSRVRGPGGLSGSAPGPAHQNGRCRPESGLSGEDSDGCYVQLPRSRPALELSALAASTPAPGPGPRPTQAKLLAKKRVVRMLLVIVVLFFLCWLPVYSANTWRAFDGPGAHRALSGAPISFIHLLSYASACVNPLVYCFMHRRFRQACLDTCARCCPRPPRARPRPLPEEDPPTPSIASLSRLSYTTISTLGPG
Method: as §1
(1) Gastrin Receptor Antagonism
Preparation of gastric glands:
Male Hartley guinea pigs (450-600 g) were killed by bleeding and stomach was extracted from each animal immediately, from which gastric glands were prepared.
Preparation of test compounds and procedures of displacing assay
A 1M solution of a compound to be tested in DMSO is prepared and diluted with 50% DMSO to obtain a ten-fold dilution series.
The mixture is incubated for 30 min at 25° C., centrifuged at 2000 rpm for 5 min and the supernatant is removed by aspiration. To the pellet is added ice-cooled incubation buffer and mixed gently, followed by an immediate centrifugation and removal of the supernatant by aspiration. The radioactivity is counted on gamma counter. The same procedure was repeated using 50% DMSO solution or human gastrin I (final concentration, 2 μM) instead of a solution of test compound so as to obtain the control value regarding total binding or the value regarding non-specific binding, respectively. […]
as §7

gastric acid secretion = assay: Inhibitory effect on gastric acid secretion by Schild method (pentagastrin-stimulated); type: in vivo, rat (male Sprague Dawley); conditions: intraduodenal, rat, read-out: Inhibitory Effect on acid secretion (Schild method), percent inhibition
From the text: Evaluation of Inhibitory Effect on Gastric Acid Secretion by Schild Method
Twenty four hour starved (ad libitum for water) male Sprague Dawley rats (8-week-old) were anesthetized with urethane (1.5 g/kg S.C.) and kept breathing with esophagus cannulas. After laparotomy, esophagus cannulas were inserted orally up to proventriculus and ligated around gastric cardiac. Perfusion cannulas were inserted from duodenum into stomach and ligated around pylorus. Another cannulas were placed into duodenum and ligated for administration of drug. After sutra of abdomen, stomach was perfused via the esophagus cannulas with physiological saline (37° C.) while collecting perfusate for a 15 min interval. The perfusate was subjected to titration with 0.001 N NaOH solution to determine the acidity. When the basal acid secretion became stable, pentagastrin ([…]) was administered in a sustained manner via common carotid vein for about 90 min until the acid secretion reached approximately the highest level, when a test compound (0.5% M.C. suspension) was administered into duodenum through cannulas. The perfusate was collected for a 15 min interval to monitor the acid secretion for 90 min. The percent inhibition was calculated as follows:
Percent inhibition (%)=100×(A-B)/(C-B)
A: the minimum value of total acidity observed after the administration of a test compound;
B: the total acidity obtained immediately before the administration of pentagastrin; and
C: the total acidity obtained immediately before the administration of a test compound.

CCK-B receptor = target: T3, CCK-B receptor (Mus musculus, UniProt P56481); assay: CCK-B receptor antagonism, displacement of [3H]CCK-8, cerebral cortex crude membrane; type: binding, mouse (male ddY); conditions: mouse cerebral cortex membrane, [3H]CCK-8 1 nM, 90 min, 25 °C; read-out: Receptor CCK-B (IC50)
T3 construct: crude membrane specimen from mouse cerebral cortex; from tissue; host or cells: cerebral cortex of male ddY mice, crude membranes
T3 sequence (P56481 1-453): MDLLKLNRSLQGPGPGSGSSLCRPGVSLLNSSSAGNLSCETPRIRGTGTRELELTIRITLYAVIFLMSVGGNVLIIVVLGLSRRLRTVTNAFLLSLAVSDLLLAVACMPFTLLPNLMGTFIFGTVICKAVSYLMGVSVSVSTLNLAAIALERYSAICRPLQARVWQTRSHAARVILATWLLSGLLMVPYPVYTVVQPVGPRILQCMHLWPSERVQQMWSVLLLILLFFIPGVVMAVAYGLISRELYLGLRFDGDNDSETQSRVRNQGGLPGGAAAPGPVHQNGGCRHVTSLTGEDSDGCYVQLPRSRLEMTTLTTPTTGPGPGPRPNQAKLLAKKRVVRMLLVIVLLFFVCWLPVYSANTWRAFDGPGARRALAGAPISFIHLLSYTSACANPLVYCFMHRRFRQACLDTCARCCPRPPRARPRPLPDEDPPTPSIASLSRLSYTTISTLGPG
Method: as §1, §2, §3, §4, §5, §6, §7

Row | SMILES | IC50 (CCK-A receptor) | IC50 (gastrin receptor) | IC50 (CCK-B receptor) | inhibition in vivo at 0.3 mg/kg (gastric acid secretion) | inhibition in vivo at 0.1 mg/kg (gastric acid secretion; 0.1 mg/kg) | inhibition in vivo at 0.5 mg/kg (gastric acid secretion; 0.5 mg/kg)
1 | O=C(Nc1cccc(-c2nc(=O)o[nH]2)c1)NC1C(=O)N(CC(=O)C2CC2)c2ccccc2N(CC(=O)C2CC2)C1=O [Compound 17-x, 1,5-Bis-(cyclopropylcarbonylmethyl)-3-(N'-(m-(5-keto-1,2,4-oxadiazol-3-yl)phenyl)ureido)-1H-1,5-benzodiazepine-2,4(3H,5H)-dione] | 360 nM | 1 nM | 3 nM | 70% | – | –
2 | O=C(Nc1cccc(SCc2nnn[nH]2)c1)NC1C(=O)N(CC(=O)C2CC2)c2ccccc2N(CC(=O)C2CC2)C1=O [Compound 17-xvii] | 1300 nM | < 1 nM | 1 nM | – | 30% | –
3 | O=C(Nc1cccc(-c2nnn[nH]2)c1)NC1C(=O)N(CC2CC2)c2ccccc2N(CC2CC2)C1=O [Compound 19-iv, 1,5-Bis-(cyclopropylmethyl)-3-(N'-(m-tetrazolylphenyl)ureido)-1H-1,5-benzodiazepine-2,4(3H,5H)-dione] | 2600 nM | 6 nM | 26 nM | – | – | 58%
4 | O=C(Nc1cccc(-c2nnn[nH]2)c1)NC1C(=O)N(CC(=O)c2cccs2)c2ccccc2N(CC(=O)c2cccs2)C1=O [Compound 20-iv, 1,5-Bis-(thienylcarbonylmethyl)-3-(N'-(m-tetrazolylphenyl)ureido)-1H-1,5-benzodiazepine-2,4(3H,5H)-dione] | 380 nM | 2 nM | 3 nM | 65% | – | –

More lines, main results first:

Row | IC50 (CCK-A receptor) | IC50 (gastrin receptor) | IC50 (CCK-B receptor) | SMILES | inhibition in vivo at 0.3 mg/kg (gastric acid secretion) | inhibition in vivo at 0.1 mg/kg (gastric acid secretion; 0.1 mg/kg) | inhibition in vivo at 0.5 mg/kg (gastric acid secretion; 0.5 mg/kg)
5 | 460 nM | 2 nM | 6 nM | CCOC(=O)CSc1cccc(NC(=O)NC2C(=O)N(CC(=O)C3CC3)c3ccccc3N(CC(=O)C3CC3)C2=O)c1 [Compound 17-viii, 1,5-Bis-(cyclopropylcarbonylmethyl)-3-(N'-(m-(carboethoxymethylthio)phenyl)ureido)-1H-1,5-benzodiazepine-2,4(3H,5H)-dione] | 76% | – | –
6 | > 10000 nM | 6 nM | 115 nM | CC(=O)NS(=O)(=O)c1cccc(NC(=O)NC2C(=O)N(CC(=O)C3CC3)c3ccccc3N(CC(=O)C3CC3)C2=O)c1 [Compound 17-xi, 1,5-Bis-(cyclopropylcarbonylmethyl)-3-(N'-(m-(acetylsulfamoyl)phenyl)ureido)-1H-1,5-benzodiazepine-2,4(3H,5H)-dione] | 39% | – | –
7 | 2500 nM | 15 nM | 48 nM | COC(=O)Cc1cccc(NC(=O)NC2C(=O)N(CC(=O)C3CC3)c3ccccc3N(CC(=O)C3CC3)C2=O)c1 [Compound 17-xii, 1,5-Bis-(cyclopropylcarbonylmethyl)-3-(N'-(m-(carbomethoxymethyl)phenyl)ureido)-1H-1,5-benzodiazepine-2,4(3H,5H)-dione] | 48% | – | –
8 | 4800 nM | 2 nM | 7 nM | O=C(O)Cc1cccc(NC(=O)NC2C(=O)N(CC(=O)C3CC3)c3ccccc3N(CC(=O)C3CC3)C2=O)c1 [Compound 17-xiii, 1,5-Bis-(cyclopropylcarbonylmethyl)-3-(N'-(m-(carbomethyl)phenyl)ureido)-1H-1,5-benzodiazepine-2,4(3H,5H)-dione] | 21% | – | –
9 | 3600 nM | 4 nM | 38 nM | O=C(Nc1cccc(-c2nnn[nH]2)c1)NC1C(=O)N(CC(=O)N2CCCC2)c2ccccc2N(CC(=O)N2CCCC2)C1=O [Compound 18-iv] | 65% | – | –
10 | 10500 nM | 7 nM | 29 nM | O=C(O)Cc1cccc(NC(=O)NC2C(=O)N(CC(=O)N3CCCC3)c3ccccc3N(CC(=O)N3CCCC3)C2=O)c1 [Compound 18-xiii, 1,5-Bis-(pyrrolidinocarbonylmethyl)-3-(N'-(m-(carboxymethyl)phenyl)ureido)-1H-1,5-benzodiazepine-2,4(3H,5H)-dione] | 26% | – | –
